Source: patent US4269848A, “5-Substituted indan-2-carboxylic acid and functional derivatives” (Lipha, Lyonnaise Industrielle Pharmaceutique, priority 1976, dated 1981)

Columns and labels:
[1] = test system: platelet aggregation; assay: Experiment C: clinical case studies, platelet anti-aggregation activity, oral administration; format: in vivo
Method: (§1) The following clinical experimentation was carried out to clinically test various compounds in accordance with the present invention for their anti-inflammatory, analgesic and platelet aggregation or clumping inhibition activites.
The following case studies relate to the platelet anti-aggregation activity associated with the oral administration of 2'-(N,N-diethylaminoethyl) 5-(2'-thenoyl)-indan-2-carboxylate.

[2] = Acute toxicity, LD 50 (oral route), mice; settings: mouse, in vivo
Description: A--The substances are of low toxicity. For example, the LD 50 value (oral route), determined in mice, of various compounds in accordance with the present invention are shown in column A of Table I.

[3] = test system: spasms of pain caused by the intraperitoneal injection of a solution of acetic acid; assay: Analgesic activity, acetic acid induced spasms of pain (Koster et al.); format: in vivo; settings: mouse, oral; dose reducing spasms of pain by 50%; read-out: AD50, Acetic Acid
Method: B--Analgesic activity in the mouse was determined by the method of Koster et al. (Fed. Proc. 1959, Vol. 18, page 412). The active dose 50 (AD50) value for various compounds in accordance with the present invention was determined, namely, that dose which, when administered orally, reduces by 50% the spasms of pain caused by the intraperitoneal injection of a solution of acetic acid.

[4] = test system: carrageenin-induced edema; assay: Anti-inflammatory activity, carrageenin-induced edema test (Winter et al.); format: in vivo; settings: rat, oral; dose inhibiting edema by 30%; read-out: AD30, Carrageenin
Description: The protection afforded, by oral administration of the compound to a rat against edema induced by injecting a suspension of carrageenin under the arch of the foot of the animal was investigated. The AD30 dose is that which inhibits the edema by 30%.

[5] = test system: erythema produced by ultra violet radiation; assay: Protective effect against erythema from ultra violet radiation (Winder et al.); format: in vivo, albino guinea pigs; settings: Cavia porcellus; albino guinea pig, oral; amount reducing erythema by 50%; read-out: AD50, U.V.
Method: D--The protective effect against inflammation resulting from exposure to radiation was determined in albino guinea pigs using the method of Winder et al (Arch. Inv. Pharmacodyn. 1958, Vol. 116, page 261). The AD50 value was determined for the test substance, namely the amount which, when administered to the animal orally, reduced by 50% the erythema produced by exposing the shaved dorsal skin of the guinea pig to ultra violet radiation.

[6] = test system: platelets; assay: In vitro inhibition of platelet aggregation induced by collagen (Born); format: cell-based; settings: read-out: minimal active concentration, Platelet Aggregation Induced By Collagen
Method: E--The anti-inflammatory activity was also determined by the aggregation-inhibiting effect of the compounds in accordance with the present invention, in vitro, on platelets the aggregation of which was induced by collagen, in accordance with the method of Born (Journal of Physiology, 1962, Vol. 162, page 67). It is known that compounds which inhibit the activity or quantity of prostaglandin synthetase will inhibit the formation of prostaglandin PGE2 and the inflammatory and pyretic effect thereof. Since prostaglandin PGE2 also causes an increase in platelet aggregation, this test is an effective indication of anti-inflammatory and anti-pyretic activity due to inhibition of prostaglandin synthetase.

[7] = Experiment B: clinical case studies, analgesic activity, oral administration; format: in vivo; settings: for Tolerance, Biological / Tolerance, Clinical: NAD = Nothing Abnormal Discovered
Method: as §1
The following case studies relate to the analgesic activity associated with the oral administration of methyl 5-(4'-dimethylaminobenzoyl)-indan-2-carboxylate.
Diagnosis: Painful episode against a background of arthrosis of the cervical spine
Treatment: 600 mg/day for 3 weeks
Diagnosis: Pains in the right hip when pressure applied, secondary to aseptic osteonecrosis
Treatment: 600 mg/day for 15 days
Diagnosis: Arthrosis of the right hip resembling Paget's Disease

[8] = Case 1, oral 200 mg, before treatment 100%
[9] = Case 2, oral 200 mg, before treatment 100%
[10] = Case 3, oral 200 mg, before treatment 100%
[11] = Case 1, arthrosis of the cervical spine, oral 600 mg/day for 3 weeks
[12] = Case 1, oral 600 mg/day for 3 weeks
[13] = Case 2, hip pain secondary to aseptic osteonecrosis, oral 600 mg/day for 15 days
[14] = Case 2, oral 600 mg/day for 15 days
[15] = Case 3, arthrosis of the right hip, oral 600 mg/day for 15 days
[16] = Case 3, oral 600 mg/day for 15 days

CCN(CC)CCOC(=O)C1Cc2ccc(C(=O)c3cccs3)cc2C1 (centres unmarked) [2'-(N,N-diethylaminoethyl) 5-(2'-thenoyl)-indan-2-carboxylate]
second phase of aggregation with ADP ([1]; Case 1, oral 200 mg): Inhibition
Aggregation with collagen, 1 h after taking 200 mg [1, 8]: 0%
Aggregation with collagen, 3 h after taking 200 mg [1, 8]: 0%
Aggregation with collagen 24 hours after the last dose ([1]; Case 1, oral, 24 h after last dose, before treatment 100%): 10%
second phase of aggregation with ADP ([1]; Case 2, oral 200 mg): 0%
Aggregation with collagen, 1 h after taking 200 mg [1, 9]: 10%
Aggregation with collagen, 3 h after taking 200 mg [1, 9]: 10%
Aggregation with collagen 24 hours after last dose ([1]; Case 2, oral, 24 h after last dose, before treatment 100%): 15%
second phase of aggregation with ADP ([1]; Case 3, oral 200 mg): Inhibition
Aggregation with collagen, 1 h after taking 200 mg [1, 10]: 0%
Aggregation with collagen, 3 h after taking 200 mg [1, 10]: 0%
Aggregation with collagen 24 hours after last dose ([1]; Case 3, oral, 24 h after last dose, before treatment 100%): 0%

COC(=O)C1Cc2ccc(C(=O)c3ccc(N(C)C)cc3)cc2C1 (centres unmarked) [Methyl 5-(4'-dimethylaminobenzoyl)-indan-2-carboxylate]
LD50 [2]: 1450 mg/kg
ED50 [3]: 2.5 mg/kg
ED30 [4]: 12 mg/kg
ED50 [5]: 24 mg/kg
minimal effective concentration [6]: 0.25 µg/mL
Conclusion [7, 11]: Good result
Length of relief [7, 11]: 4 h
Time taken to relieve pain [7, 11]: 30 min
Tolerance, Biological [7, 12]: NAD
Tolerance, Clinical [7, 12]: NAD (Nothing Abnormal Discovered)
Conclusion [7, 13]: Very good result
Length of relief [7, 13]: 4 h
Time to relieve pain [7, 13]: less than 15 minutes
Tolerance, Biological [7, 14]: NAD
Tolerance, Clinical [7, 14]: NAD
Conclusion [7, 15]: Good result
Length of relief [7, 15]: 2 h
Time to relieve pain [7, 15]: 30 min
Tolerance, Biological [7, 16]: NAD
Tolerance, Clinical [7, 16]: NAD
